Like-named read-outs stand apart in the source and are kept apart here.
Key:
[1] = molecular target: T1, ETB receptors (Homo sapiens, UniProt P24530); conditions: in man; cited from earlier work
T1 construct: host or cells: man (in vivo)
T1 sequence (P24530 27-442): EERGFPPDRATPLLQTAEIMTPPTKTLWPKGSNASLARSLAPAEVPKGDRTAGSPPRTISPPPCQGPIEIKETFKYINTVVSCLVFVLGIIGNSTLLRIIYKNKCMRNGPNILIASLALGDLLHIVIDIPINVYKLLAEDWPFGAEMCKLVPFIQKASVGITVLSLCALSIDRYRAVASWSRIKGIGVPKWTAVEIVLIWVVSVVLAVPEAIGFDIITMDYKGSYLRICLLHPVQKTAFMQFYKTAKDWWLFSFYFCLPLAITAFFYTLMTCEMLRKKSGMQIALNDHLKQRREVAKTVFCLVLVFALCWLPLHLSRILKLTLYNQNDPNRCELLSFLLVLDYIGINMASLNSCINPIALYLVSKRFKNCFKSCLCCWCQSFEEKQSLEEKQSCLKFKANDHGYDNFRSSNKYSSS

[2] = tested on: ETA/B receptor; conditions: hypertensive patients; cited from earlier work
[3] = tested on: dog renal artery strips (ET-1-induced contraction); experiment: Test A: inhibition of contraction induced by ET-1 in dog renal artery strips to generate Kb values; type: cell-based, beagle dogs; conditions: Canis lupus familiaris, 1.25 h, ET-1 contraction, 75 minutes incubation with test compound, single concentration, read-out: Apparent Kb
From the text: Inhibition of Contraction Induced by ET-1 in Dog Renal Artery Strips to Generate Kb Values
A Kb value is a measure of functional activity, and this is taken to be the free plasma concentration of a test compound required to provide efficacy.
Renal arteries from beagle dogs (body weight 9-15 kg) were cut into spirals and divided into 5 mm long strips. The side of each strip that was adjacent to the lumen of the vessel was gently rubbed to remove the endothelium. […] The tension generated by each strip was recorded isometrically. After incubating the tissues with test compound for 75 minutes, cumulative concentration response curves were constructed to ET-1 in the presence of 10 μM Bestatin, 10 μM Captopril, 10 μM Thiorphan, 50 μM indomethacin and 0.001% BSA. Only a single ET-1 curve was constructed in each tissue and tension increases expressed as a percentage of the response to 120mM KCl determined before the addition of the test compound. […] This is the ratio of the EC50 in the presence of the test compound divided by the EC50 in its absence. The DR is then put into the following equation:
apparent pKb=log(DR−1)−log[B] (where B=molar concentration of test compound)

[4] = Test B: pharmacokinetic study in the dog, plasma concentrations after i.v. infusion; type: in vivo; conditions: for Estimated % of Kb at 24 hours following 2.0 mg/kg i.v. dose: 0.5 mg/kg value multiplied by 4; for % of Kb at 24 hours following 0.5 mg/kg i.v. dose: free plasma concentration as percentage of Kb from Test A; for concentration at 24 h: plasma, intravenous, 0.5 mg/kg
Protocol: In order to assess the potential of test ET antagonists to provide efficacy, a pharmacokinetic study in the dog was carried out.
Blood samples were taken at various time points and centrifuged to provide plasma samples. These samples were analysed using Mass Spectrometry to provide total plasma concentrations.
Total plasma concentrations in the dog were determined by comparison with the standard line constructed (using the spiked plasma samples) to cover the expected concentration range.
(c) Calculation of free plasma concentrations [formula] or % protein bound=(1−Fu)×100
The free plasma concentrations of the compound can then be determined.
Free plasma concentration=total plasma concentration (from method (a))×fraction unbound (from method (b))

[5] = Test B(b): plasma protein binding by equilibrium dialysis; type: in vitro ADME; conditions: dog, canine plasma
From the text: (b) Determination of plasma protein binding by equilibrium dialysis
An example of a method used is described below.
Plasma containing the test compound was placed in a chamber (half-cell), separated by a semi-permeable membrane (Spectra/Por™ 1 47 mm diam MWCO 6-8000) from isotonic buffer at physiological pH in the other half-cell. The system was allowed to equilibrate, such that low molecular weight compounds distributed evenly between the two chambers (plasma and buffer), whilst high molecular weight molecules were restricted to the plasma chamber. At equilibrium the concentration of the unbound test compound is the same on either side of the membrane. The concentration of total test compound in each half-cell was then determined (using essentially the described above) and the extent of plasma protein binding calculated.
The Spectra/Por™ Equilibrium Dialyzer used to determine protein binding was supplied by NBS Biologicals.

[6] = tested on: ET-1-induced pressor response; experiment: Test C: inhibition of ET-1-induced pressor response in conscious beagle dogs; type: in vivo
Protocol: Inhibition of ET-1-induced Pressor Response in Conscious Beagle Dogs
Studies were performed in surgically prepared conscious beagle dogs (13-17 kg) which were well adjusted to the laboratory environment. Surgical preparation was performed under recovery anaesthesia to insert an indwelling aortic catheter with external access between the scapulae and protruding subcutaneous ECG studs, positioned for the recording of lead 11 electrocardiograms. During studies dogs were placed, unrestrained, in “Pavlov” type slings. The aortic catheter was connected to a pressure transducer for the measurement of systemic arterial pressure and ECG studs, via patient cables, to a bio-amplifier for the recording of electrocardiograms. ET-1 was administered as a 15 min infusion (25 pmoles/kg/min) via a temporary catheter inserted into the saphenous vein. Test compound or placebo was administered by oral gavage (0.5 or 2.0 mg/kg) at 1 and 24 hours prior to the infusion of ET-1. Individual studies investigated no more than a single dose of test compound or placebo at any one time. Systemic arterial pressure and electrocardiograms were recorded for one hour prior to and one hour after the start of the infusion of ET-1. Test compounds were evaluated by comparing the effects of placebo or test compound on the magnitude of pressor response elicited by ET-1.

[7] = tested on: dogs with pacing-induced CHF; experiment: Congestive heart failure induced by rapid ventricular pacing in dogs; type: in vivo
Protocol: A group of animals receiving ACE-inhibitor treatment served as positive control.
Heart failure was induced by rapid ventricular pacing, which is a well established and extensively documented model It is the only heart failure model that allows control of the degree of heart failure by adjusting the pacing rate.
Dogs were paced throughout the study at pacing rates up to 220-240 bpm leading to steadily progressing CHF.
Group 1: Placebo (Furosemide 4 mg/kg/day BID per os, n=6)
Group 2: ET-receptor antagonist (2 mg/kg/day SID per os+Furosemide as above, n=6)
Group 3: Enalapril maleate (1 mg/kg/day BID per os+Furosemide as above)
(n=6, positive control) was initiated 2 weeks after start of pacing and continued for 3 weeks.
Throughout the study, both clinical parameters (heart murmurs, edema formation, dyspnoe) as well as haemodynamic (CO, blood pressure, cardiac contractility, and heart rate) and humoral parameters (plasma catecholamines, ANF, ET-1) were measured to determine morbidity and quality of life of the animals.
Dosing of the animals during the 3-week treatment period took place BID@8 am and 4 pm:
Improvement in cardiac function is illustrated by the effect of Compound X on the left ventricular enddiastolic pressure (LVEDP) in resting dogs before and during progressive CHF induced by pacing at […]. Test compounds were given for 3 weeks while pacing continued. In the graph below, the Y-axis is LVEDP in mm, and the X-axis is the time in weeks. […] [In the study, 5 dogs were treated with placebo, 3 dogs were treated with enalapril, and 5 dogs were treated with Compound X] [drawing 5]
Dogs were paced for 2 weeks to develop CHF and then assigned to oral gavage treatment with either placebo (vehicle), Compound X (2 mg/kg/day, sid), or enalapril (1 mg/kg/day, bid). In addition, all animals received the diuretic furosemide (4 mg/kg/day, bid) throughout treatment period. During the 3-week treatment period, rapid ventricular pacing was continued. Pacing led to deterioration of myocardial and circulatory function with progression of CHF as indicated by increases in left ventricular enddiastolic pressure (LVEDP) and reductions of cardiac contractility and output. In addition, all animals were assessed for clinical parameters of CHF by an independent veterinarian.
Throughout the study dogs were studied twice weekly at rest and during standardised exercise on a treadmill at two different speeds.

[8] = tested on: neointimal formation; conditions: after balloon angioplasty; cited from earlier work
[9] = tested on: heart disease in dogs; conditions: veterinary clinical trial, dogs with heart disease; cited from earlier work
[10] = 0.5 mg/kg i.v. infusion over 10 minutes, read-out: Total plasma concentration at 24 hours following 0.5 mg/kg iv dose
[11] = total plasma concentration x fraction unbound, read-out: Free concentration at 24 hours following 0.5 mg/kg i.v. dose
[12] = 2 mg/kg/day sid p.o. plus furosemide, 3 weeks

Row | SMILES | Kb [3] | Estimated % of Kb at 24 hours following 2.0 mg/kg i.v. dose [4] | % of Kb at 24 hours following 0.5 mg/kg i.v. dose [4] | concentration at 24 h [4, 10] | concentration at 24 h [4, 11] | fraction unbound [5] | further results
1 | CCCC[C@@H](NC(=O)[C@@H](Cc1cn(C(=O)OC)c2ccccc12)NC(=O)[C@H](CC(C)(C)C)NC(=O)N1[C@H](C)CCC[C@@H]1C)C(=O)O [BQ-788] | – | – | – | – | – | – | Effect on peripheral resistance [1]: increase peripheral resistance
2 | COc1ccccc1Oc1c(NS(=O)(=O)c2ccc(C(C)(C)C)cc2)nc(-c2ncccn2)nc1OCCO [Bosentan] | – | – | – | – | – | – | Effect on blood pressure [2]: decreased blood pressure
3 | COc1ccccc1Oc1c(NS(=O)(=O)CCc2ccccc2)nc(-c2ncccn2)nc1OC [Compound X, N-[6-methoxy-5-(2-methoxyphenoxy)-2-(2-pyrimidinyl)-4-pyrimidinyl]-2-phenylethansulphonamide] | 0.086 µM | 196% | 49% | 466 nM | 41.9 nM | 0.09 | Change in arterial pressure elicited by ET-1 ([6]; 0.5 mg/kg p.o., 1 hour prior to ET-1 infusion): 3 ΔmmHg; Change in arterial pressure elicited by ET-1 ([6]; 2.0 mg/kg p.o., 24 hours prior to ET-1 infusion): 3 ΔmmHg; inhibition at 0.5 mg/kg ([6]; Canis lupus familiaris, po, 0.5 mg/kg p.o., 1 hour prior to ET-1 infusion): 76%; inhibition at 2 mg/kg ([6]; Canis lupus familiaris, po, 2.0 mg/kg p.o., 24 hours prior to ET-1 infusion): 80%; Arterial blood pressure (BP) [7, 12]: lower arterial blood pressure; Cardiac output [7, 12]: maintained or even increased cardiac output; LVEDP at rest and during treadmill exercise [7, 12]: significantly improved LVEDP not only under resting conditions but even more so during treadmill exercise; LVEDP relative to pre-treatment values [7, 12]: lowered LVEDP below pre-treatment values; Left ventricular enddiastolic pressure (LVEDP) in resting dogs ([7]; 2 mg/kg/day sid p.o. plus furosemide, 3 weeks, pacing 210-240 bpm, versus placebo and enalapril): Significant improvements over both placebo and enalapril; Exercise tolerance ([7]; all treated animals, placebo group three out of six developed exercise intolerance): maintained exercise tolerance throughout the study; Heart failure class, NYHA scale (I-IV) ([7]; all treated animals, placebo group three out of six reached class III): class II
4 | COCCOc1nc(-c2ncccn2)nc(NS(=O)(=O)CCc2ccccc2)c1Oc1ccccc1OC [Example 2, WO 98/57938] | 0.136 µM | <32% | <8% | < 93 nM | < 11 nM | 0.12 | –
5 | COc1cc(OC)nc(O[C@H](C(=O)O)C(OC)(c2ccccc2)c2ccccc2)n1 [LU 135,252] | 0.111 µM | 4.8% | 1.2% | 40 nM | 1.3 nM | 0.032 | –
6 | CCCOc1ccc2c(c1)[C@@H](c1ccc(OC)cc1OCC(=O)O)[C@H](C(=O)O)[C@H]2c1ccc2c(c1)OCO2 [SB-209670] | – | – | – | – | – | – | Reduction in neointimal formation relative to control animals [8]: 50%
7 | CCOC(=O)[C@H](CCc1ccccc1)N[C@@H](C)C(=O)N1CCC[C@H]1C(=O)O [enalapril] | – | – | – | – | – | – | Cardiac function [9]: did not improve cardiac function; Disease progression [9]: significant slow down in disease progression

From US20020037903A1, “Use of pyrimidine endothelin antagonists in companion animals” (priority 2000, published 2002)
